Laboratory results taken from article PMC11274883, “Anticancer Effect of Pt^[sequence], Pt^II5MESS, Pt^II56MESS and Their Platinum(IV)-Dihydroxy Derivatives against Triple-Negative Breast Cancer and Cisplatin-Resistant Colorectal Cancer” (Cancers, 2024).

Tests used:
Assay type in all cases: cell-based
MDA−MB−231 cells [1] = assay: Cellular localisation of Pt (fractionation, ICP-MS); details: MDA−MB−231, 3 µM, 24 h
Experimental: (§1) MDA−MB−231 and HT29 cells were seeded at a final concentration of 10^6 cells/well in 6-well plates and incubated overnight. Cells were then treated with 3 µM of either Pt^II or Pt^IV complexes for 24 h. The media was next removed, and cells were washed three times with ice-cold PBS. Then the cells were trypsinised. The isolation of individual fractions was carried out using the Fraction-PREP Cell Fractionation kit (ab288085, Abcam, Cambridge, MA, USA). The cell pellet was resuspended in ice-cold PBS and moved to Eppendorf tubes to spin for 5 min at 700× g and supernatant was removed. The pellet was then resuspended in 400 µL of cytosol extraction buffer mix and incubated for 20 min on ice. Next, samples were centrifuged at 700× g for 10 min and the supernatant was collected as the cytosolic fraction. The pellet was then resuspended in 400 µL of ice-cold membrane A extraction buffer mix and vortexed for 10 s, after which membrane B extraction buffer mix was added and incubated on ice for 1 min. The sample was then vortexed and centrifuged for 5 min at 1000× g. […] The pellet was then resuspended in 200 µL of ice-cold nuclear extraction buffer, vortexed for 20 s and then incubated on ice for 40 min with constant vortexing every 10 min. The samples were then centrifuged for 10 min at maximum speed. […] Platinum cell localisation was then measured via ICP-MS, as described in Section 2.5.

HT29 cells = assay: as above; details: HT29, 3 µM, 24 h
Experimental: as §1

MDA−MB−231 cells [2] = assay: DCFDA cellular ROS detection assay; details: complexes at IC50, TBHP 20 µM
Outline: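 Cells seeded at 2500 cells/well overnight, then loaded with 25 µM DCFH-DA for 45 min. DCF fluorescence (ex/em 485/535 nm, RFU) read at multiple time points; 20 µM TBHP served as positive control. Three independent experiments in triplicate.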

Structure (SMILES) | subcellular fraction with main platinum accumulation (MDA−MB−231 cells [1]) | subcellular fraction with main platinum accumulation (HT29 cells) | ROS production (MDA−MB−231 cells [2]; MDA−MB−231, 24 h) [RFU] | ROS production (MDA−MB−231 cells [2]; MDA−MB−231, 48 h) [RFU] | ROS production (MDA−MB−231 cells [2]; MDA−MB−231, 72 h) [RFU]
N.N.[Cl][Pt][Cl] [Cisplatin, cisplatin] | membrane/particulate fraction | membrane/particulate fraction | 279.82 | 325.96 | 369.97
Cc1cc2cccnc2c2ncccc12.N[C@H]1CCCC[C@@H]1N.O=[N+]([O-])[O-].O=[N+]([O-])[O-].[Pt+2] [Pt^II5MESS, [Pt(5-methyl-1,10-phenanthroline)(1S,2S-diaminocyclohexane)](NO3)2] | – | – | 316.23 | 372.49 | 399.97
Cc1c(C)c2cccnc2c2ncccc12.N[C@H]1CCCC[C@@H]1N.O=[N+]([O-])[O-].O=[N+]([O-])[O-].[Pt+2] [Pt^II56MESS, [Pt(5,6-dimethyl-1,10-phenanthroline)(1S,2S-diaminocyclohexane)](NO3)2] | – | – | 338.49 | 418.08 | 446.09
Cc1cc2cccnc2c2ncccc12.N[C@H]1CCCC[C@@H]1N.O=[N+]([O-])[O-].O=[N+]([O-])[O-].[OH][Pt+2][OH] [Pt^IV5MESS(OH)2, [Pt(5-methyl-1,10-phenanthroline)(1S,2S-diaminocyclohexane)(dihydroxy)](NO3)2] | – | – | 245.26 | 264.00 | 314.78
Cc1c(C)c2cccnc2c2ncccc12.N[C@H]1CCCC[C@@H]1N.O=[N+]([O-])[O-].O=[N+]([O-])[O-].[OH][Pt+2][OH] [Pt^IV56MESS(OH)2, [Pt(5,6-dimethyl-1,10-phenanthroline)(1S,2S-diaminocyclohexane)(dihydroxy)](NO3)2] | – | – | 292.21 | 360.12 | 386.28
N[C@H]1CCCC[C@@H]1N.O=[N+]([O-])[O-].O=[N+]([O-])[O-].[OH-].[OH-].[Pt+4].c1cnc2c(c1)ccc1cccnc12 [[Pt(1,10-phenanthroline)(1S,2S-diaminocyclohexane)(dihydroxy)](NO3)2] | – | – | 196.62 | 256.83 | 275.09
N[C@H]1CCCC[C@@H]1N.O=[N+]([O-])[O-].O=[N+]([O-])[O-].[Pt+2].c1cnc2c(c1)ccc1cccnc12 [[Pt(1,10-phenanthroline)(1S,2S-diaminocyclohexane)](NO3)2] | – | – | 234.82 | 285.31 | 297.81
